Source: PMC9207888, “Hydride Transfer Mechanism of Enzymatic Sugar Nucleotide C2 Epimerization Probed with a Loose-Fit CDP-Glucose Substrate” (ACS Catalysis, 2022)

What was measured:
Assay type in all cases: binding
[1] = molecular target: T1, TaCPa2E (Thermodesulfatator atlanticus CDP-paratose 2-epimerase; C2 epimerase) (Thermodesulfatator atlanticus, UniProt Z9RN36Q305); experiment: HPLC quantification of coenzyme released from denatured purified enzyme; conditions: resting enzyme without substrate, 60 °C, pH 7.5
T1 construct: C-terminal His-tag, pET21a, expressed in E. coli BL21(DE3); 39362 g/mol functional monomer; catalytic Tyr164; SDR superfamily
T1 sequence (Z9RN36Q305 1-340): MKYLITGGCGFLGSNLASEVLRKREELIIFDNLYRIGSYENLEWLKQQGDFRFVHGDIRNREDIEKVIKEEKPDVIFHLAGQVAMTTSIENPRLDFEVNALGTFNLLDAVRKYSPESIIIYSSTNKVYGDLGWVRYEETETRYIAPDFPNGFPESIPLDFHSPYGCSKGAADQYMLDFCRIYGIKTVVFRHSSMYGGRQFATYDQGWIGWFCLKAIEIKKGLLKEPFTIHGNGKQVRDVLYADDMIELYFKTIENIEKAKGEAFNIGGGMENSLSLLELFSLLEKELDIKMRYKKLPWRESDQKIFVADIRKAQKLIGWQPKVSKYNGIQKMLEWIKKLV
Description: HPLC quantification of coenzyme released from denatured purified enzyme on TaCPa2E (Thermodesulfatator atlanticus CDP-paratose 2-epimerase; C2 epimerase) | the NADH content of the resting enzyme in the absence of the substrate

[2] = molecular target: T2, TaCPa2E (Thermodesulfatator atlanticus CDP-paratose 2-epimerase; C2 epimerase) (Thermodesulfatator atlanticus, UniProt Z9RN36Q305, Y164F); experiment: co-purified coenzyme in isolated variant; conditions: tightly bound
T2 construct: C-terminal His-tag, pET21a, expressed in E. coli BL21(DE3); 39362 g/mol functional monomer; catalytic Tyr164; SDR superfamily

[3] = molecular target: T1, TaCPa2E (Thermodesulfatator atlanticus CDP-paratose 2-epimerase; C2 epimerase); experiment: HPLC of coenzyme released from denatured purified enzyme; conditions: tightly bound, co-purified; extraction not quantitative

Row | portion of enzyme-NADH in resting enzyme [1] [%] | Structure (SMILES) | co-purified coenzyme in isolated variant [2] | HPLC of coenzyme released from denatured purified enzyme [3]
1 | 4.15 ± 1.0 | NC(=O)C1=CN([C@@H]2O[C@H](COP(=O)(O)OP(=O)(O)OC[C@H]3O[C@@H](n4cnc5c(N)ncnc54)[C@H](O)[C@@H]3O)[C@@H](O)[C@H]2O)C=CC1 [NADH] | – | –
2 | – | NC(=O)c1ccc[n+]([C@@H]2O[C@H](COP(=O)(O)OP(=O)(O)OC[C@H]3O[C@@H](n4cnc5c(N)ncnc54)[C@H](O)[C@@H]3O)[C@@H](O)[C@H]2O)c1 [NAD^+] | The purified variant contained tightly bound NAD^+ | enzyme-bound NAD^+ could not be extracted from TaCPa2E reliably
